Test results: ChEMBL document CHEMBL1121969, “Synthesis and antiviral properties of some 2'-deoxy-5-(fluoroalkenyl)uridines” (1982)
Converted amounts (≈) assume the structure as drawn.

Tested on: Human alphaherpesvirus 1
Test: Antiviral activity against various strains of Herpes Simplex virus type I
Assay type: functional
Conditions: read-out: ID50 (the source's name)

SMILES | IC50
O=c1[nH]c(=O)n([C@H]2C[C@H](O)[C@@H](CO)O2)cc1/C(F)=C(\F)Cl.O=c1[nH]c(=O)n([C@H]2C[C@H](O)[C@@H](CO)O2)cc1C(F)=C(Cl)Cl | 24 µg/mL
O=c1[nH]c(=O)n([C@H]2C[C@H](O)[C@@H](CO)O2)cc1C(F)=C(Cl)Cl | 26 µg/mL (≈ 76.2 µM)
Nc1nc2c(ncn2COCCO)c(=O)[nH]1 [ACYCLOVIR] | 0.8 µg/mL (≈ 3.55 µM)
Nc1ncnc2c1ncn2[C@@H]1O[C@H](CO)[C@@H](O)[C@H]1O [ADENOSINE] | 21 µg/mL (≈ 78.6 µM)
O=c1[nH]c(=O)n([C@H]2C[C@H](O)[C@@H](CO)O2)cc1/C=C/Br [BRIVUDINE] | 0.07 µg/mL (≈ 0.21 µM)
O=c1[nH]c(=O)n([C@H]2C[C@H](O)[C@@H](CO)O2)cc1I [IDOXURIDINE] | 4.4 µg/mL (≈ 12.4 µM)
